The values that follow come from US12371428B2 (Exelixis, Inc., priority 2019, dated 2025).

The target in test [1] is Human MER (residues 528-999) (Homo sapiens (Human), UniProt Q12866). Briefly: Human Mer kinase assay, HTRF KinEase (Example C-2). In kind it is biochemical. Conditions: protocol of Example C-2. In a few lines:
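Recombinant MER 528-999 (1 ng/well) in buffer with 5 mM MgCl2 and 1 mM DTT was reacted with biotinylated peptide and ATP at Km (40 μM) for 60 min at room temperature. EDTA stop with SA-XL665 and Eu3+ TK antibody, then 665/620 nm HTRF read; IC50 from 4-parameter fit.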

Test [2] concerns the target Met (phospho-Met, HGF-stimulated PC-3 prostate cancer cells) (Homo sapiens (Human), UniProt P08581). The test can be described thus: Met autophosphorylation ELISA in PC-3 cells (Example F). In kind it is cell-based. The following applies: cellular activity; Met autophosphorylation ELISA in PC-3 cells; read-out: c-Met IC50. In a few lines:
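Compounds were tested on HGF-stimulated PC-3 cells. After 24 h culture and 3 h serum starvation, cells got compound for 1 h and 100 ng/mL HGF for 10 min, and Met tyrosine phosphorylation was measured by ELISA.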

Test [3] has as its target Mer (phospho-Mer, MERTK-transfected 293A cells) (Homo sapiens (Human), UniProt Q12866). Briefly: Mer autophosphorylation ELISA in transient transfected 293A cells (Example H). In kind it is cell-based. The following applies: cellular activity; Mer autophosphorylation ELISA in transient transfected 293A cells. An outline of the steps: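 IC50 from phospho-Mer ELISA of MERTK-transfected 293A cell lysates after 1 h treatment with serially diluted compound in serum-free medium.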

The target in test [4] is Human MET (residues 956-1390) (Homo sapiens (Human), UniProt P08581). The test can be described thus: Human Met kinase assay, HTRF KinEase (Example D-2). Format: biochemical. Conditions: protocol of Example D-2; read-out: c-Met IC50. An outline of the steps:
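MET kinase domain (956-1390), 0.1 ng/well, in buffer with 5 mM MgCl2, 1 mM DTT and 1 mM MnCl2, phosphorylated a biotinylated peptide at ATP Km for 40 min at RT; 10 concentrations, 3% DMSO final. EDTA-stopped HTRF read after 60 min; IC50 from a 4-parameter logistic fit.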

Each structure is given as a SMILES string.

Mer (phospho-Mer, MERTK-transfected 293A cells), sequence (Q12866 21-999): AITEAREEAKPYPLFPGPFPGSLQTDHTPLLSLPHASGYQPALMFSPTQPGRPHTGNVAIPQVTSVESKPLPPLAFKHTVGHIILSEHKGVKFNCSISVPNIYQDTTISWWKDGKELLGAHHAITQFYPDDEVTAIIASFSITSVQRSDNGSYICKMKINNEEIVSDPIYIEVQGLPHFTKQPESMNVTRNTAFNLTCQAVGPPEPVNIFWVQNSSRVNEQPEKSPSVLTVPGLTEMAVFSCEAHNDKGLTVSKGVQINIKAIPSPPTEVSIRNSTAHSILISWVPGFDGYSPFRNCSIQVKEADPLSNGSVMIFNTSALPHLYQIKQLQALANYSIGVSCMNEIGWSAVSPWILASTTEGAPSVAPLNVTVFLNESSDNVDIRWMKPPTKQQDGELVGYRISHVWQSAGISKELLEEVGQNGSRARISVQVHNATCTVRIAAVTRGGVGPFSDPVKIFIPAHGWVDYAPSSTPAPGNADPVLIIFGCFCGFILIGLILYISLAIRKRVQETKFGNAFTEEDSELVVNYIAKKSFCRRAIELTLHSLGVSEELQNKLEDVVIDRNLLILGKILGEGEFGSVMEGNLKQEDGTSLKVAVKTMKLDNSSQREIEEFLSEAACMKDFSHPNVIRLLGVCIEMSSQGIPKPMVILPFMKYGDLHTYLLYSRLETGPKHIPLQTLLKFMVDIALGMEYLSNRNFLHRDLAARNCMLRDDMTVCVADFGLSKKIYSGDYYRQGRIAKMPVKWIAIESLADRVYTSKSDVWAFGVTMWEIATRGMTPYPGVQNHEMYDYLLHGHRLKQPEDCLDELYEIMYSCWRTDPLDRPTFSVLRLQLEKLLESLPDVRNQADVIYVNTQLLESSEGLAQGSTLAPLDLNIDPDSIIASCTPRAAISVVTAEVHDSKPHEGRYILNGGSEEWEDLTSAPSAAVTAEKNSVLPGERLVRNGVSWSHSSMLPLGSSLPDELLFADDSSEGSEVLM
Human MER (residues 528-999), sequence (Q12866 528-999): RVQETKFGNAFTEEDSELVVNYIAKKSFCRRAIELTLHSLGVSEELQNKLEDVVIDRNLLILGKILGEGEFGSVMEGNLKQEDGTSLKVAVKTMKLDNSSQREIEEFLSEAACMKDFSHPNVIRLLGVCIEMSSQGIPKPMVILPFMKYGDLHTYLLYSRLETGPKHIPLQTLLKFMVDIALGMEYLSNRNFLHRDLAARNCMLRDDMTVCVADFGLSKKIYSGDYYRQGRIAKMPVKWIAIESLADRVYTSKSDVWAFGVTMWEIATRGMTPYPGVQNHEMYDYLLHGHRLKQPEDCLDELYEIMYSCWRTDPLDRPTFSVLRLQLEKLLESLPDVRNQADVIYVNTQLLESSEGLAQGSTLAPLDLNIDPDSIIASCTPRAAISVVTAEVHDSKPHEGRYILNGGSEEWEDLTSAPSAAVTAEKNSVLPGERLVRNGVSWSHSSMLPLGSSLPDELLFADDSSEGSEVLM
Met (phospho-Met, HGF-stimulated PC-3 prostate cancer cells), sequence (P08581 25-1390): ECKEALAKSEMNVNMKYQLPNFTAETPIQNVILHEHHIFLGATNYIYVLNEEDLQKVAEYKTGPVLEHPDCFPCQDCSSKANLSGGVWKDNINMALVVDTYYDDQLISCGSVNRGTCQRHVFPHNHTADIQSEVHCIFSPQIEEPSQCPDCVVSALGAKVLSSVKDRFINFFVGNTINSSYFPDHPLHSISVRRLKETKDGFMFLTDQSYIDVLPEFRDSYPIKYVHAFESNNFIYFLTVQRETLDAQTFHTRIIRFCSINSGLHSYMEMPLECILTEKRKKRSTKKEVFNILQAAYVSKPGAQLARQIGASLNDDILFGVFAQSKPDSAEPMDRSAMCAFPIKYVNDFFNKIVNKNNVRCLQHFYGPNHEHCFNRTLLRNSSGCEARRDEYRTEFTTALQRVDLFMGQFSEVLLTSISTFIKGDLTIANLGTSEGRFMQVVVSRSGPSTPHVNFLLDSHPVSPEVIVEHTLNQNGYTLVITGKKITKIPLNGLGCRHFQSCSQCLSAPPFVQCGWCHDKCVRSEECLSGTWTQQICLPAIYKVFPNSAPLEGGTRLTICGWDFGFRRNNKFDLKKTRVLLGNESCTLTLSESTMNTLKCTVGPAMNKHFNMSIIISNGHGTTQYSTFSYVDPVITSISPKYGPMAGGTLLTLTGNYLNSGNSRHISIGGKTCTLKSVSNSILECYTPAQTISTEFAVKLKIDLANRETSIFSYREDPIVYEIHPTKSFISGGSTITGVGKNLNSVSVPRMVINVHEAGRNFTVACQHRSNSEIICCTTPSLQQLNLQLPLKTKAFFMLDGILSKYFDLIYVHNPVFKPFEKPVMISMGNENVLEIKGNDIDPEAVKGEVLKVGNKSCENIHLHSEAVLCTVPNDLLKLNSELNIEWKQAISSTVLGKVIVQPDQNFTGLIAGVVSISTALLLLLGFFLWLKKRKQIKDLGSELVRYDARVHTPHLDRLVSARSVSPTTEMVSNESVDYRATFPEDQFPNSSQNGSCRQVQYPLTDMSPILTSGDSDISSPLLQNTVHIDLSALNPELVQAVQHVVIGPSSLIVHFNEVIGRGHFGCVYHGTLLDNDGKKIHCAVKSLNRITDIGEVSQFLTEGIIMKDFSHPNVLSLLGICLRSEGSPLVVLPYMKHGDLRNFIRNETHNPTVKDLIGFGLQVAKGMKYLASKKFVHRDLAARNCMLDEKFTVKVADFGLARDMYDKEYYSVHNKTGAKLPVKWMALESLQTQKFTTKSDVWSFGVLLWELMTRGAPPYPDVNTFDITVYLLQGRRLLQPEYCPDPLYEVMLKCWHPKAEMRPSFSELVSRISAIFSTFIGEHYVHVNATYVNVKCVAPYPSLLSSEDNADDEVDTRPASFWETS
Human MET (residues 956-1390), sequence (P08581 956-1390): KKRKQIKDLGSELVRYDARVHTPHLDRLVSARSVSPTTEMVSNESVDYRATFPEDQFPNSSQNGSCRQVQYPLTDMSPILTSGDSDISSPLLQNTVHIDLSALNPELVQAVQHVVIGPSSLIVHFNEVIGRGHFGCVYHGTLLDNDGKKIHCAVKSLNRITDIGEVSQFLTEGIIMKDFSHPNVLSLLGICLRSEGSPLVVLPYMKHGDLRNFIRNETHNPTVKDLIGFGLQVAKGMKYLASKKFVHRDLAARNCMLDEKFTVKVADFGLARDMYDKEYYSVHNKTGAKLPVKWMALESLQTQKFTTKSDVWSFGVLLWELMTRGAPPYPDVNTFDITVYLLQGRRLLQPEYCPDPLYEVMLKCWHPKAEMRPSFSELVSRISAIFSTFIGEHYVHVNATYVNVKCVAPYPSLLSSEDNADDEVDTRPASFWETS

With `COc1cc2nccc(Oc3ccc(NC(=O)c4cnc(N)n(-c5ccc(F)cc5)c4=O)cc3F)c2nc1OC` [Compound 565, 2-Amino-N-[4-[(6,7-dimethoxy-1,5-naphthyridin-4-yl)oxy]-3-fluorophenyl]-1-(4-fluorophenyl)-6-oxopyrimidine-5-carboxamide], the 50% inhibitory concentration (IC50) in test [1], in test [2], in test [3] and in test [4] was under 0.1 µM in each case.
For `CCn1nc(C(=O)Nc2ccc(Oc3ccnc4cc(OC)c(OC)nc34)c(F)c2)c(=O)c(-c2ccc(F)cc2)c1C` [Compound 568, N-[4-[(6,7-Dimethoxy-1,5-naphthyridin-4-yl)oxy]-3-fluorophenyl]-1-ethyl-5-(4-fluorophenyl)-6-methyl-4-oxopyridazine-3-carboxamide], the half-maximal inhibitory concentration (IC50) in test [1], in test [2], in test [3] and in test [4] was under 0.1 µM each time.
`Cc1ncc(C(=O)Nc2ccc(Oc3ccnc4cc(C(N)=O)cnc34)c(F)c2)c(O)c1-c1ccc(F)cc1` [Compound 577, 8-[2-Fluoro-4-[[5-(4-fluorophenyl)-4-hydroxy-6-methylpyridine-3-carbonyl]amino]phenoxy]-1,5-naphthyridine-3-carboxamide]: the IC50 is under 0.1 µM in test [1], under 0.1 µM in test [2], 0.1 to 0.3 µM in test [3] and under 0.1 µM in test [4].
Regarding `CNC(=O)c1cnc2c(Oc3ccc(NC(=O)c4cnc(C)c(-c5ccc(F)cc5)c4O)cc3F)ccnc2c1` [Compound 578, 8-[2-Fluoro-4-[[5-(4-fluorophenyl)-4-hydroxy-6-methylpyridine-3-carbonyl]amino]phenoxy]-N-methyl-1,5-naphthyridine-3-carboxamide], the IC50 in test [1] is under 0.1 µM; in test [2], over 0.3 µM; in test [3] it was over 0.3 µM; in test [4], under 0.1 µM.
As to `COc1cc2nccc(Oc3ccc(NC(=O)c4cn(C(C)C)c(C)c(-c5ccc(F)cc5)c4=O)cc3F)c2nc1N` [Compound 579, N-[4-[(6-Amino-7-methoxy-1,5-naphthyridin-4-yl)oxy]-3-fluorophenyl]-5-(4-fluorophenyl)-6-methyl-4-oxo-1-propan-2-ylpyridine-3-carboxamide], the IC50 in test [1], in test [2], in test [3] and in test [4] was under 0.1 µM each time.
On to `COc1cc2nccc(Oc3ccc(NC(=O)c4cn(C(C)C)c(C)c(-c5ccc(F)cc5)c4=O)cc3F)c2nc1O` [Compound 580, N-[3-Fluoro-4-[(6-hydroxy-7-methoxy-1,5-naphthyridin-4-yl)oxy]phenyl]-5-(4-fluorophenyl)-6-methyl-4-oxo-1-propan-2-ylpyridine-3-carboxamide], for which the IC50 in test [1], in test [2], in test [3] and in test [4] was under 0.1 µM each time.
Turning to `COc1cc2nccc(Oc3ccc(NC(=O)c4cn(C(C)C)c(C)c(-c5ccc(F)cc5)c4=O)cc3F)c2nc1NS(C)(=O)=O` [Compound 581, N-[3-Fluoro-4-[[6-(methanesulfonamido)-7-methoxy-1,5-naphthyridin-4-yl]oxy]phenyl]-5-(4-fluorophenyl)-6-methyl-4-oxo-1-propan-2-ylpyridine-3-carboxamide], the IC50 in test [1] is under 0.1 µM; in test [2], 0.1 to 0.3 µM; in test [3] it was under 0.1 µM; in test [4], under 0.1 µM.
With `CNc1nc2c(Oc3ccc(NC(=O)c4cn(C(C)C)c(C)c(-c5ccc(F)cc5)c4=O)cc3F)ccnc2cc1OC` [Compound 582, N-[3-Fluoro-4-[[7-methoxy-6-(methylamino)-1,5-naphthyridin-4-yl]oxy]phenyl]-5-(4-fluorophenyl)-6-methyl-4-oxo-1-propan-2-ylpyridine-3-carboxamide], the IC50 in test [1], in test [2], in test [3] and in test [4] was under 0.1 µM each time.
With `COc1cc2nccc(Oc3ccc(NC(=O)c4cnc(C)c(-c5ccc(F)cc5)c4O)cc3F)c2nc1NS(C)(=O)=O` [Compound 584, N-[3-Fluoro-4-[[6-(methanesulfonamido)-7-methoxy-1,5-naphthyridin-4-yl]oxy]phenyl]-5-(4-fluorophenyl)-4-hydroxy-6-methylpyridine-3-carboxamide], the IC50 in test [1] is under 0.1 µM; in test [2] it was under 0.1 µM; in test [3], 0.1 to 0.3 µM; in test [4] it was under 0.1 µM.
`CNc1c(-c2ccc(F)cc2)c(=O)c(C(=O)Nc2ccc(Oc3ccnc4cc(OC)cnc34)c(F)c2)cn1C` [Compound 585, N-[3-Fluoro-4-[(7-methoxy-1,5-naphthyridin-4-yl)oxy]phenyl]-5-(4-fluorophenyl)-1-methyl-6-(methylamino)-4-oxopyridine-3-carboxamide]: the IC50 in test [1], in test [2], in test [3] and in test [4] was under 0.1 µM throughout.
In the case of `COc1cnc2c(Oc3ccc(NC(=O)c4cn(C)c(C#N)c(-c5ccc(F)cc5)c4=O)cc3F)ccnc2c1` [Compound 586, 6-Cyano-N-[3-fluoro-4-[(7-methoxy-1,5-naphthyridin-4-yl)oxy]phenyl]-5-(4-fluorophenyl)-1-methyl-4-oxopyridine-3-carboxamide], the half-inhibitory concentration (IC50) in test [1] was under 0.1 µM; in test [2], 0.1 to 0.3 µM; in test [3] it was under 0.1 µM; in test [4], under 0.1 µM.
For the compound `COc1cnc2c(Oc3ccc(NC(=O)c4cn(C)c(OC)c(-c5ccc(F)cc5)c4=O)cc3F)ccnc2c1` [Compound 587, N-[3-Fluoro-4-[(7-methoxy-1,5-naphthyridin-4-yl)oxy]phenyl]-5-(4-fluorophenyl)-6-methoxy-1-methyl-4-oxopyridine-3-carboxamide], the IC50 in test [1], in test [2], in test [3] and in test [4] was under 0.1 µM each time.
For `CCc1nc2c(Oc3ccc(NC(=O)c4cn(C(C)C)c(C)c(-c5ccc(F)cc5)c4=O)cc3F)ccnc2cc1OC` [Compound 588, N-[4-[(6-Ethyl-7-methoxy-1,5-naphthyridin-4-yl)oxy]-3-fluorophenyl]-5-(4-fluorophenyl)-6-methyl-4-oxo-1-propan-2-ylpyridine-3-carboxamide], the half-inhibitory concentration (IC50) in test [1], in test [2], in test [3] and in test [4] was under 0.1 µM each time.
Turning to `CCc1nc2c(Oc3ccc(NC(=O)c4cnc(C)c(-c5ccc(F)cc5)c4O)cc3F)ccnc2cc1OC` [Compound 589, N-[4-[(6-Ethyl-7-methoxy-1,5-naphthyridin-4-yl)oxy]-3-fluorophenyl]-5-(4-fluorophenyl)-4-hydroxy-6-methylpyridine-3-carboxamide], the IC50 in test [1], in test [2], in test [3] and in test [4] was under 0.1 µM throughout.
Turning to `Cc1cc(F)ccc1-c1c(C)ncc(C(=O)Nc2ccc(Oc3ccnc4cc(C(C)C)cnc34)c(F)c2)c1O` [Compound 593, 5-(4-Fluoro-2-methylphenyl)-N-[3-fluoro-4-[(7-propan-2-yl-1,5-naphthyridin-4-yl)oxy]phenyl]-4-hydroxy-6-methylpyridine-3-carboxamide], the IC50 in test [1] is 0.1 to 0.3 µM; in test [2], under 0.1 µM; in test [3], under 0.1 µM; in test [4], 0.1 to 0.3 µM.
With `Cc1ncc(C(=O)Nc2ccc(Oc3ccnc4cc(C(C)C)cnc34)cc2)c(O)c1-c1ccc(F)cc1` [Compound 594, 5-(4-Fluorophenyl)-4-hydroxy-6-methyl-N-[4-[(7-propan-2-yl-1,5-naphthyridin-4-yl)oxy]phenyl]pyridine-3-carboxamide], the IC50 in test [1], in test [2], in test [3] and in test [4] was under 0.1 µM each time.
As for `Cc1nc(C)c(-c2ccc(F)cc2)c(O)c1C(=O)Nc1ccc(Oc2ccnc3cc(C(C)C)cnc23)c(F)c1` [Compound 595, 5-(4-Fluorophenyl)-N-[3-fluoro-4-[(7-propan-2-yl-1,5-naphthyridin-4-yl)oxy]phenyl]-4-hydroxy-2,6-dimethylpyridine-3-carboxamide], the IC50 in test [1] is under 0.1 µM; in test [2], under 0.1 µM; in test [3] it was under 0.1 µM; in test [4], 0.1 to 0.3 µM.
Take `Cc1ncc(C(=O)Nc2ccc(Oc3ccnc4cc(C(C)C)cnc34)c(F)c2)c(O)c1-c1ccc(F)cc1` [Compound 596, 5-(4-Fluorophenyl)-N-[3-fluoro-4-[(7-propan-2-yl-1,5-naphthyridin-4-yl)oxy]phenyl]-4-hydroxy-6-methylpyridine-3-carboxamide]: the IC50 in test [1], in test [2], in test [3] and in test [4] was under 0.1 µM each time.
